US20040014653A1, “Peptide composition” (priority 2000, published 2004)

Tested on: Human keratinocytes (HatKat)
Experiment: Growth of keratinocytes, cell count in Coulter counter after three days
Format: cell-based
Method: Human keratinocytes (HatKat) were grown in keratinocyte growth medium (TCS Cellworks Ltd.) until 20% confluence. Then, in the same medium, the keratinocytes were grown for three days with 0.5% foetal calf serum (FCS), at which point the cells were counted in a Coulter® counter. The cell numbers obtained are set out in Table 3 below.

In the case of “EGF: epidermal growth factor, comparator growth factor in keratinocyte growth test”, the “increase in the growth of keratinocytes (in words)” value (10 ng/mi EGF versus medium with 0.5% FCS) is reported as “relatively modest increase” and the Number of cells (Medium with 0.5% FCS + 10 ng/ml EGF, three days) is reported as 29,356.
